# In patent US20100152434A1, “Protein Kinase-binding Nucleosides and Associated Methods” (priority 2007, published 2010):
# Legend:
# Assay in all cases: SignalChem radioisotope protein kinase assay
# Assay type in all cases: biochemical
# Details in all cases: 5 μl of 100 μM stock solution in 25 μl
# KDR = KDR (Homo sapiens, UniProt P35968)
# Excerpt: (§1) The various protein kinase targets to be employed in the kinase profiling assay were cloned, expressed and purified in-house at SignalChem (Richmond, BC, Canada) using proprietary methods. Quality control testing is routinely performed on each of the SignalChem targets to ensure compliance to acceptable standards. Protein substrates employed in the target profiling process were synthesized internally. ^33P-ATP was purchased from PerkinElmer. All other materials were of standard grade. Compound 10 (FIG. 4) was supplied to SignalChem in a powder form. It was reconstituted in DMSO to form a stock solution which was then diluted with 10% DMSO to form a working stock solution (100 μM) that was then profiled against the various protein kinase targets. The assay conditions for the various protein kinase targets were optimized to yield acceptable enzymatic activity. In addition, the assays were optimized to give high signal-to-noise ratio.
# (§2) SignalChem uses a radioisotope assay format for profiling evaluation of protein kinase targets. Protein kinase assays were performed in triplicate at ambient temperature for 20-40 min (depending on the target) in a final volume of 25 μl according to the following assay reaction recipe: • Component 1: 5 μl of diluted active protein kinase target (˜10-40 nM final protein concentration in the assay) • Component 2: 5 μl of stock solution of substrate (1-5 μg of peptide or protein substrate) • Component 3: 5 μl of kinase assay buffer or protein kinase activator in kinase assay buffer • Component 4: 5 μl of Compound 10 (100 μM stock solution) or 10% DMSO • Component 5: 5 μl of 33P-ATP (25 μM stock solution, 0.8 μCi)
# (§3) The assay was initiated by the addition of ^33P-ATP and the reaction mixture incubated at ambient temperature for 20-40 minutes, depending on the protein kinase target. After the incubation period, the assay was terminated by spotting 10 μl of the reaction mixture onto a Millipore Multiscreen plate. The Millipore Multiscreen plate was washed 3 times for approximately 15 minutes each in a 1% phosphoric acid solution. The radioactivity on the P81 plate was counted in the presence of scintillation fluid in a Trilux scintillation counter. Blank control, which included all the assay components except the addition of the appropriate substrate (replaced with equal volume of assay dilution buffer), was set up for each protein kinase target. The corrected activity for each protein kinase target was determined by removing the blank control value.
# AKT2 = AKT2 (Homo sapiens, UniProt P31751)
# Excerpt: as §1, §2, §3
# SRC = biological target: T1, SRC (Homo sapiens, UniProt P12931)
# T1 construct: purchased SignalChem
# Excerpt: as §1, §2, §3
# PDGFRβ = PDGFRβ (Homo sapiens, UniProt P09619)
# Excerpt: as §1, §2, §3
# FGR = FGR (Homo sapiens, UniProt P09769)
# Excerpt: as §1, §2, §3
# ABL2 = ABL2 (Homo sapiens, UniProt P42684)
# Sequence of ABL2 (P42684 whole entry, species assumed): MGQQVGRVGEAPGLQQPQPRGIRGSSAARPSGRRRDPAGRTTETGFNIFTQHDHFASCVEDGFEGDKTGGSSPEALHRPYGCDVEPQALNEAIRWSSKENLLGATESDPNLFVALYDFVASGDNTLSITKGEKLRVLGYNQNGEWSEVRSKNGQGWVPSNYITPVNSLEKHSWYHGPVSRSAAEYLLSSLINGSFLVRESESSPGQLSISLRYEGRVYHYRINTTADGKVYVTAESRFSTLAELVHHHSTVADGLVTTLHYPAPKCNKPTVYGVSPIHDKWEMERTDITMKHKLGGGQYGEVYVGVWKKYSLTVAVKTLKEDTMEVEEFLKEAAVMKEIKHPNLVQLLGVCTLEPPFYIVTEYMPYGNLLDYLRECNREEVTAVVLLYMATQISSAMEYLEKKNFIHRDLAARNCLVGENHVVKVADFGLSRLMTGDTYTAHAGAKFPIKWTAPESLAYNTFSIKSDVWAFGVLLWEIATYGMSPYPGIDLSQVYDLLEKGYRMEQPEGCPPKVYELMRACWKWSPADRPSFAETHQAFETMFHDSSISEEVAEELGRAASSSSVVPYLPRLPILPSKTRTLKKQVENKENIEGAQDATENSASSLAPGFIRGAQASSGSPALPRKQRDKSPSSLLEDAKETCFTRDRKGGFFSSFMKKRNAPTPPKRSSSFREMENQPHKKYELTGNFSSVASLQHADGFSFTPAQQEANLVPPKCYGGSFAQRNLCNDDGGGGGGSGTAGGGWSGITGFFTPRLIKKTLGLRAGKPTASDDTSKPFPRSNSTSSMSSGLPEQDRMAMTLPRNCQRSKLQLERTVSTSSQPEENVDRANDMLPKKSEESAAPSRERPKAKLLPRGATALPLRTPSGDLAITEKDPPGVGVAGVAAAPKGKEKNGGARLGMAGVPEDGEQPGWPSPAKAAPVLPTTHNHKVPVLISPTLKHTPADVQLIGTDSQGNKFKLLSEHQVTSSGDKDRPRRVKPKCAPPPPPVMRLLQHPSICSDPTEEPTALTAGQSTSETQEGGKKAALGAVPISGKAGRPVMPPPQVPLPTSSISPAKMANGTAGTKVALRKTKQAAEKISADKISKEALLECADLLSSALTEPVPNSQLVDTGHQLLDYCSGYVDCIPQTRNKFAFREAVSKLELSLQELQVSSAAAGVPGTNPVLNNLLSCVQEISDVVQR
# Excerpt: as §1, §2, §3
# MEK1 = MEK1 (Homo sapiens, UniProt Q02750)
# Excerpt: as §1, §2, §3
# NEK6 = NEK6 (Homo sapiens, UniProt Q9HC98)
# Excerpt: as §1, §2, §3
# c-KIT = c-KIT (Homo sapiens, UniProt P10721)
# Excerpt: as §1, §2, §3
# HCK = HCK (Homo sapiens, UniProt P08631)
# Sequence of HCK (P08631 whole entry, species assumed): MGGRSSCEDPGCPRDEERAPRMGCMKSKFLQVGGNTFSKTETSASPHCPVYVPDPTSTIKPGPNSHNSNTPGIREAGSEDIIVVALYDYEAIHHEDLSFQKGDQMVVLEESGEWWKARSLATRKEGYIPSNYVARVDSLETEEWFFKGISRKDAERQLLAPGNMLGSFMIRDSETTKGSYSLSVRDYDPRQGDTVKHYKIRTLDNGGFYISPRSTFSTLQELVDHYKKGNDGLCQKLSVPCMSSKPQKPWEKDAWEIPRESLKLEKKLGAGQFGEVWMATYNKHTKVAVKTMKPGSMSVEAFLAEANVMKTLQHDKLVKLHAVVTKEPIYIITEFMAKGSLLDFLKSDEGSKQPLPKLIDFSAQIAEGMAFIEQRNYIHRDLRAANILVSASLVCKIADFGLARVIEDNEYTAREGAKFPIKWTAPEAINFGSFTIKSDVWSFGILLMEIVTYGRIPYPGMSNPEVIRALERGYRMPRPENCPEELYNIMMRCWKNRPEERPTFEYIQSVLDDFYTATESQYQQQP
# Excerpt: as §1, §2, §3
# TRKA = biological target: T2, TRKA (Homo sapiens, UniProt P04629)
# T2 construct: purchased SignalChem
# Excerpt: as §1, §2, §3
# RSK1 = biological target: T3, RSK1 (Homo sapiens, UniProt Q15418)
# T3 construct: purchased SignalChem
# Excerpt: as §1, §2, §3
# LCK = LCK (Homo sapiens, UniProt P06239)
# Excerpt: as §1, §2, §3
# PDK1 = PDK1 (Homo sapiens, UniProt O15530)
# Excerpt: as §1, §2, §3
# p38β = p38β (Homo sapiens, UniProt Q15759)
# Excerpt: as §1, §2, §3
# FLT3 = FLT3 (Homo sapiens, UniProt P36888)
# Sequence of FLT3 (P36888 27-993, species assumed): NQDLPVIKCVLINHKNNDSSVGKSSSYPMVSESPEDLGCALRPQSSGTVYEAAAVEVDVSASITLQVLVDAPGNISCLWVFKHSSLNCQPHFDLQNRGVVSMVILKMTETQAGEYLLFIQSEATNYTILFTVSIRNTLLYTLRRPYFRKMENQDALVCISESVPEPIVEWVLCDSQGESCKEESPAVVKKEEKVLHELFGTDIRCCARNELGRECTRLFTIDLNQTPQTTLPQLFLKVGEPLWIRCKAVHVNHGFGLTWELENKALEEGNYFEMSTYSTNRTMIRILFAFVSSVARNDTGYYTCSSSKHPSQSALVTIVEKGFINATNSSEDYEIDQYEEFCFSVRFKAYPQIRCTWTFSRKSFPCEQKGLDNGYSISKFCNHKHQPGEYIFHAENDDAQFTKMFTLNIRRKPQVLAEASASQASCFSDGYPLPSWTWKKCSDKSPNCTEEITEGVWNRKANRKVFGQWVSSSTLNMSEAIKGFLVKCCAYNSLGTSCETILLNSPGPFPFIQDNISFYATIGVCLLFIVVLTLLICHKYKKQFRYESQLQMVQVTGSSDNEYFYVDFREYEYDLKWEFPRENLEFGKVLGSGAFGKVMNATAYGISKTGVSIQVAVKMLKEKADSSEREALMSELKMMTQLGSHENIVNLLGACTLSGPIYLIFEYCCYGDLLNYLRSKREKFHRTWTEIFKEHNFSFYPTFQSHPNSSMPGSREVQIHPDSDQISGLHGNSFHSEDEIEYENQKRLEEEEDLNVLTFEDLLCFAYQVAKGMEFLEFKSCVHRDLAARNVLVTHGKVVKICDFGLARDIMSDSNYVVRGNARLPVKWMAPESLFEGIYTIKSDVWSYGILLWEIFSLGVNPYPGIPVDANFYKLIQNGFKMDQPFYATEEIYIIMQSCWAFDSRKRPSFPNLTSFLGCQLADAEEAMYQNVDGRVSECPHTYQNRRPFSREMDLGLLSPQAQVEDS
# Excerpt: as §1, §2, §3
# FER = FER (Homo sapiens, UniProt P16591)
# Excerpt: as §1, §2, §3
# RSK3 = biological target: T4, RSK3 (Homo sapiens, UniProt Q15349)
# T4 construct: purchased SignalChem
# Excerpt: as §1, §2, §3
# P38γ = P38γ (Homo sapiens, UniProt P53778)
# Excerpt: as §1, §2, §3
# p38δ = p38δ (Homo sapiens, UniProt O15264)
# Excerpt: as §1, §2, §3
# AKT1 = AKT1 (Homo sapiens, UniProt P31749)
# Sequence of AKT1 (P31749 whole entry, species assumed): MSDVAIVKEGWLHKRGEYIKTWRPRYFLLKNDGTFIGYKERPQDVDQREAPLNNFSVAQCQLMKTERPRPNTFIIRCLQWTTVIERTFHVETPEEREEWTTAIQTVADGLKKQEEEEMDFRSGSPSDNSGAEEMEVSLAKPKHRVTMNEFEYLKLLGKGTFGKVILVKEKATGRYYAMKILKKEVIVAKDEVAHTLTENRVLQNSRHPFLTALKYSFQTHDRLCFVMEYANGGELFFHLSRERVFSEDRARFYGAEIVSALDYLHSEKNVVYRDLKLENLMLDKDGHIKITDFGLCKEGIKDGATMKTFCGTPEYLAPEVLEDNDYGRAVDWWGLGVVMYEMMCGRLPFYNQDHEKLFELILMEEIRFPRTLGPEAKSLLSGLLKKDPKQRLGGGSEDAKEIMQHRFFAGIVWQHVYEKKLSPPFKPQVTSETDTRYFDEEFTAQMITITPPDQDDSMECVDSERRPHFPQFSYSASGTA
# Excerpt: as §1, §2, §3
# BRAF = BRAF (Homo sapiens, UniProt P15056)
# Excerpt: as §1, §2, §3
# RAF1(EE) = biological target: T5, RAF1(EE) (Homo sapiens, UniProt P04049, Y340E/Y341E)
# T5 construct: purchased SignalChem
# Excerpt: as §1, §2, §3
# ERK2 = ERK2 (Homo sapiens, UniProt P28482)
# Excerpt: as §1, §2, §3
# FRK = FRK (Homo sapiens, UniProt P42685)
# Excerpt: as §1, §2, §3
# MARK3 = MARK3 (Homo sapiens, UniProt P27448)
# Excerpt: as §1, §2, §3
# PAK4 = PAK4 (Homo sapiens, UniProt O96013)
# Excerpt: as §1, §2, §3
# PAK7 = PAK7 (Homo sapiens, UniProt Q9P286)
# Excerpt: as §1, §2, §3
# AURORA A = AURORA A (Homo sapiens, UniProt O14965)
# Sequence of AURORA A (O14965 whole entry): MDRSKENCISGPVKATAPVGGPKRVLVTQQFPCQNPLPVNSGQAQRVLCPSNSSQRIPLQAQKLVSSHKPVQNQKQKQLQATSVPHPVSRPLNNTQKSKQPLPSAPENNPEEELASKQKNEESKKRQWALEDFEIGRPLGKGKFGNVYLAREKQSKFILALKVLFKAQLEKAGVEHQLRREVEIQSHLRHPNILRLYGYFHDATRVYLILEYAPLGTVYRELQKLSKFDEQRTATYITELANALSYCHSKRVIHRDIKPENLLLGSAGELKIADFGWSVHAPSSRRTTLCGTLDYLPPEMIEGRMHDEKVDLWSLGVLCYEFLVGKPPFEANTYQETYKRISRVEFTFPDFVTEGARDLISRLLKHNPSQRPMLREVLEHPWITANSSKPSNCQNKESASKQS
# Excerpt: as §1, §2, §3
# Sequence of KDR (P35968 20-1356, species assumed): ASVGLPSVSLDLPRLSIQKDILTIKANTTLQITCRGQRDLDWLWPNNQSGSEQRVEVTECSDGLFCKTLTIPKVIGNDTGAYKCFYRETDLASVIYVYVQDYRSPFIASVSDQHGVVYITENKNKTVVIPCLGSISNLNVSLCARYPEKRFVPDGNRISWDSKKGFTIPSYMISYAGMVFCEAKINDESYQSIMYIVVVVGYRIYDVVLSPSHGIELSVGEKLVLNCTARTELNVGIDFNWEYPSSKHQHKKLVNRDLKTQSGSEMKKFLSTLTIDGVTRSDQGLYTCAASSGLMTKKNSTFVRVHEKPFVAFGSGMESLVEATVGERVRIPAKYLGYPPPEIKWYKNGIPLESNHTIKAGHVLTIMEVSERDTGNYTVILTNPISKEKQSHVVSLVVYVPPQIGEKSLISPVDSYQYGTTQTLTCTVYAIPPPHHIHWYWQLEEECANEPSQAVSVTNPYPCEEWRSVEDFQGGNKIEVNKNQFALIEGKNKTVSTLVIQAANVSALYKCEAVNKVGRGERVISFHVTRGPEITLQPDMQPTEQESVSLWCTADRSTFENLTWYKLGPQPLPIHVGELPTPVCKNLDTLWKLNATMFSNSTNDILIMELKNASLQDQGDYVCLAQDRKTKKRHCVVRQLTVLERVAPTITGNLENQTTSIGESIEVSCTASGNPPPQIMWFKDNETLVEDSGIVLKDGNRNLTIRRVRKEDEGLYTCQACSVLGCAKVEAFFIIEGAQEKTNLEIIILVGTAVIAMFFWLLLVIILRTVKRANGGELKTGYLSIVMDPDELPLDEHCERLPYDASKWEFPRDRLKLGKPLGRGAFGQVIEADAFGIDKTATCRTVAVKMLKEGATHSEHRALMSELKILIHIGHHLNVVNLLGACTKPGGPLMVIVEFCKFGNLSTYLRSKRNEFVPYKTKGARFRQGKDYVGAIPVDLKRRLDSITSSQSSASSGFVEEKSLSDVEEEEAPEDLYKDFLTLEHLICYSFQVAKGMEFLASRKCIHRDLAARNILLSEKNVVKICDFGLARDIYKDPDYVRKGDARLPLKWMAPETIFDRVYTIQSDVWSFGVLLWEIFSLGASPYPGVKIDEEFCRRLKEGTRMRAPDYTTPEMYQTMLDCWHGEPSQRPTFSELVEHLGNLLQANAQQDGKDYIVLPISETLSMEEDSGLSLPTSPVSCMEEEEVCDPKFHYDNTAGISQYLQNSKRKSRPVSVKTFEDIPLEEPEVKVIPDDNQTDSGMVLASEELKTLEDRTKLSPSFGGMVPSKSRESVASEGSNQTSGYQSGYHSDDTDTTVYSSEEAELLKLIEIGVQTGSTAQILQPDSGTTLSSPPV
smiles,measurement,setting,value
CCOC(=O)C[C@@H]1C(O[Si](C)(C)C(C)(C)C)[C@H](n2cnc3c(NC(=O)Nc4ccccc4)ncnc32)O[C@@H]1CNC(=O)NC (some centres unmarked) [Compound 10],% Activity Change,KDR,2%
same,% Activity Change,AKT2,27%
same,% Activity Change,SRC,−2%
same,% Activity Change,PDGFRβ,−7%
same,% Activity Change,FGR,3%
same,% Activity Change,ABL2,8%
same,% Activity Change,MEK1,8%
same,% Activity Change,NEK6,28%
same,% Activity Change,c-KIT,−6%
same,% Activity Change,HCK,18%
same,% Activity Change,TRKA,−6%
same,% Activity Change,RSK1,4%
same,% Activity Change,LCK,30%
same,% Activity Change,PDK1,8%
same,% Activity Change,p38β,15%
same,% Activity Change,FLT3,11%
same,% Activity Change,FER,−3%
same,% Activity Change,RSK3,10%
same,% Activity Change,P38γ,14%
same,% Activity Change,p38δ,5%
same,% Activity Change,AKT1,2%
same,% Activity Change,BRAF,1%
same,% Activity Change,RAF1(EE),0%
same,% Activity Change,ERK2,−4%
same,% Activity Change,FRK,24%
same,% Activity Change,MARK3,−1%
same,% Activity Change,PAK4,−20%
same,% Activity Change,PAK7,21%
same,% Activity Change,AURORA A,1%
